Reference: PubChem BioAssay (NCI)
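Results reflect a 48-hour exposure of cells in 96-well plates to compound at five concentrations. GI50 = concentration required for 50% inhibition of growth. TGI: concentration producing complete growth inhibition.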

Columns and labels:
Assay in all cases: DTP human tumour cell line panel, 48 h
SN12C renal = system: SN12C renal
RPMI-8226 leukemia = system: RPMI-8226 leukemia
BT-549 breast = system: BT-549 breast
NCI-H226 lung = system: NCI-H226 lung
NCI/ADR-RES ovarian = system: NCI/ADR-RES ovarian
T-47D breast = system: T-47D breast
SF-268 CNS = system: SF-268 CNS
CAKI-1 renal = system: CAKI-1 renal
UACC-62 melanoma = system: UACC-62 melanoma
SNB-19 CNS = system: SNB-19 CNS
SK-MEL-28 melanoma = system: SK-MEL-28 melanoma
NCI-H23 lung = system: NCI-H23 lung
SK-MEL-5 melanoma = system: SK-MEL-5 melanoma
TK-10 renal = system: TK-10 renal
K-562 leukemia = system: K-562 leukemia
IGROV1 ovarian = system: IGROV1 ovarian
HS 578T breast = system: HS 578T breast
A549 NSCLC = system: A549 NSCLC
MDA-MB-435 = system: MDA-MB-435
HL-60(TB) leukemia = system: HL-60(TB) leukemia
SK-MEL-2 melanoma = system: SK-MEL-2 melanoma
SF-539 CNS = system: SF-539 CNS
HCT-116 colon = system: HCT-116 colon
MDA-MB-231 breast = system: MDA-MB-231 breast
786-0 renal = system: 786-0 renal
DU-145 prostate = system: DU-145 prostate
HOP-92 NSCLC = system: HOP-92 NSCLC
M14 melanoma = system: M14 melanoma
RXF 393 renal = system: RXF 393 renal
NCI-H522 lung = system: NCI-H522 lung
HT29 colon = system: HT29 colon
OVCAR-4 ovarian = system: OVCAR-4 ovarian
LOX IMVI melanoma = system: LOX IMVI melanoma
SR leukemia = system: SR leukemia
UO-31 renal = system: UO-31 renal
MALME-3M melanoma = system: MALME-3M melanoma
SNB-75 CNS = system: SNB-75 CNS
SF-295 CNS = system: SF-295 CNS
MOLT-4 leukemia = system: MOLT-4 leukemia
HOP-62 NSCLC = system: HOP-62 NSCLC
PC-3 prostate = system: PC-3 prostate
HCT-15 colon = system: HCT-15 colon
ACHN renal = system: ACHN renal
EKVX NSCLC = system: EKVX NSCLC
COLO 205 colon = system: COLO 205 colon
OVCAR-3 ovarian = system: OVCAR-3 ovarian
KM12 colon = system: KM12 colon
MCF7 breast = system: MCF7 breast
SK-OV-3 ovarian = system: SK-OV-3 ovarian
UACC-257 melanoma = system: UACC-257 melanoma
U251 CNS = system: U251 CNS
HCC-2998 colon = system: HCC-2998 colon
CCRF-CEM leukemia = system: CCRF-CEM leukemia
OVCAR-8 ovarian = system: OVCAR-8 ovarian
NCI-H460 lung = system: NCI-H460 lung
A498 renal = system: A498 renal
OVCAR-5 ovarian = system: OVCAR-5 ovarian
SW-620 colon = system: SW-620 colon

## COc1c2ccccc2c(O)c2c(=O)ccn(C)c12
SN12C renal
  GI50: 6.79 µM
  TGI: 22.1 µM
RPMI-8226 leukemia
  GI50: 5.96 µM
  TGI: > 100 µM
BT-549 breast
  GI50: 14.7 µM
  TGI: 84.2 µM
NCI-H226 lung
  GI50: 7.49 µM
  TGI: > 49.9 µM
NCI/ADR-RES ovarian
  GI50: 4.62 µM
  TGI: 30 µM
T-47D breast
  GI50: 31.7 µM
  TGI: > 100 µM
SF-268 CNS
  GI50: 16.5 µM
  TGI: > 68.9 µM
CAKI-1 renal
  GI50: 8.59 µM
  TGI: 52.9 µM
UACC-62 melanoma
  GI50: 2.75 µM
  TGI: 7.5 µM
SNB-19 CNS
  GI50: 7.77 µM
  TGI: > 100 µM
SK-MEL-28 melanoma
  GI50: 21.2 µM
  TGI: > 80.1 µM
NCI-H23 lung
  GI50: 1.73 µM
  TGI: 4.08 µM
SK-MEL-5 melanoma
  GI50: 3.77 µM
  TGI: 14.4 µM
TK-10 renal
  GI50: 11.3 µM
  TGI: 55.8 µM
K-562 leukemia
  GI50: 7.5 µM
  TGI: > 100 µM
IGROV1 ovarian
  GI50: 30.9 µM
  TGI: > 100 µM
HS 578T breast
  GI50: 12.2 µM
  TGI: 61.5 µM
A549 NSCLC
  GI50: 9.14 µM
  TGI: > 67.3 µM
MDA-MB-435
  GI50: 2.03 µM
  TGI: 4.32 µM
HL-60(TB) leukemia
  GI50: 3.25 µM
  TGI: 18.7 µM
SK-MEL-2 melanoma
  GI50: 22.6 µM
  TGI: > 100 µM
SF-539 CNS
  GI50: 11.5 µM
  TGI: 89.6 µM
HCT-116 colon
  GI50: 3.13 µM
  TGI: 13.1 µM
MDA-MB-231 breast
  GI50: 8.66 µM
  TGI: > 61.4 µM
786-0 renal
  GI50: 17.2 µM
  TGI: 66.4 µM
DU-145 prostate
  GI50: 7.67 µM
  TGI: > 100 µM
HOP-92 NSCLC
  GI50: 25.6 µM
  TGI: 91.1 µM
M14 melanoma
  GI50: 2.3 µM
  TGI: 5.81 µM
RXF 393 renal
  GI50: 5.27 µM
  TGI: 20.3 µM
NCI-H522 lung
  GI50: 23.9 µM
  TGI: > 100 µM
HT29 colon
  GI50: 16.5 µM
  TGI: > 100 µM
OVCAR-4 ovarian
  GI50: 30.3 µM
  TGI: > 92 µM
LOX IMVI melanoma
  GI50: 2.02 µM
  TGI: 11.3 µM
SR leukemia
  GI50: 8.94 µM
  TGI: 81.8 µM
UO-31 renal
  GI50: > 57.5 µM
  TGI: > 100 µM
MALME-3M melanoma
  GI50: 2.37 µM
  TGI: 5.46 µM
SNB-75 CNS
  GI50: 12.9 µM
  TGI: > 53.9 µM
SF-295 CNS
  GI50: 3.69 µM
  TGI: 27.8 µM
MOLT-4 leukemia
  GI50: 17.9 µM
  TGI: > 83.8 µM
HOP-62 NSCLC
  GI50: 5.48 µM
  TGI: 33 µM
PC-3 prostate
  GI50: 15 µM
  TGI: 57.6 µM
HCT-15 colon
  GI50: 3.72 µM
  TGI: 19.6 µM
ACHN renal
  GI50: 6.13 µM
  TGI: 46.3 µM
EKVX NSCLC
  GI50: 17.9 µM
  TGI: 79.2 µM
COLO 205 colon
  GI50: 7.7 µM
  TGI: > 100 µM
OVCAR-3 ovarian
  GI50: 1.86 µM
  TGI: 11 µM
KM12 colon
  GI50: 4.97 µM
  TGI: 38.3 µM
MCF7 breast
  GI50: 3.31 µM
  TGI: 11.3 µM
SK-OV-3 ovarian
  GI50: 75.1 µM
  TGI: > 100 µM
UACC-257 melanoma
  GI50: 3.45 µM
  TGI: 12.6 µM
U251 CNS
  GI50: 2.67 µM
  TGI: 13.4 µM
HCC-2998 colon
  GI50: 3.68 µM
  TGI: 20 µM
CCRF-CEM leukemia
  GI50: 26.8 µM
  TGI: > 100 µM
OVCAR-8 ovarian
  GI50: 4.42 µM
  TGI: 38.1 µM
NCI-H460 lung
  GI50: 3.51 µM
  TGI: 17 µM
A498 renal
  GI50: 10.7 µM
  TGI: 41.6 µM
OVCAR-5 ovarian
  GI50: 11.7 µM
  TGI: 45 µM
SW-620 colon
  GI50: 16.5 µM
  TGI: > 100 µM
